Test results from publication PMC11968394, “The effect of deuterated PLK1 inhibitor on its safety and efficacy in vivo” (Frontiers in Oncology, 2025).

Experiments:
[1] = target: DRAK1 (Homo sapiens, UniProt Q9UEE5); test: Kinase assay DRAK1; format: biochemical
Protocol: (§1) Serial dilutions in DMSO were prepared. PLK1 was serially diluted 5-fold from 10 μM, yielding concentrations from 10000 nM to 0.00512 nM. Other targets were serially diluted 3-fold from 10 μM, yielding concentrations from 10000 nM to 0.5 nM. We have used two kinase assays: HTRF assay and ADG-Glo assay.
(§2) For HTRF Assay, 2× ATP/substrate solution and 2× kinase solution were prepared in kinase reaction buffer. Using an Echo 655, 50 nL of each diluted compound was transferred to a 384-well detection plate. The plate was centrifuged at 1000 rpm for 1 minute. 2.5 μL of 2× kinase solution was added to each well. The plate was incubated at 25°C for 10 minutes. 2.5 μL of 2× ATP/substrate solution was added to each well. The plate was centrifuged at 1000 rpm for 1 minute. The plate was incubated at 25°C for 40 minutes. 2× XL665 and antibody detection reagent were prepared in detection buffer. 5 μL of the prepared kinase detection reagent was added to each well. The plate was centrifuged at 1000 rpm for 1 minute. The plate was incubated at 25°C for 1 hour. Fluorescence signals at 620 nm (Cryptate) and 665 nm (XL665) were measured using a multifunction plate reader.
(§3) For ADP-Glo Assay, 2× ATP/substrate solution and 2× kinase solution were prepared in kinase reaction buffer. […] Luminescence signals were measured using a multifunction plate reader.

[2] = target: CK1δ (Homo sapiens, UniProt P48730); test: Kinase assay CK1δ; format: biochemical
CK1δ, sequence (P48730 whole entry): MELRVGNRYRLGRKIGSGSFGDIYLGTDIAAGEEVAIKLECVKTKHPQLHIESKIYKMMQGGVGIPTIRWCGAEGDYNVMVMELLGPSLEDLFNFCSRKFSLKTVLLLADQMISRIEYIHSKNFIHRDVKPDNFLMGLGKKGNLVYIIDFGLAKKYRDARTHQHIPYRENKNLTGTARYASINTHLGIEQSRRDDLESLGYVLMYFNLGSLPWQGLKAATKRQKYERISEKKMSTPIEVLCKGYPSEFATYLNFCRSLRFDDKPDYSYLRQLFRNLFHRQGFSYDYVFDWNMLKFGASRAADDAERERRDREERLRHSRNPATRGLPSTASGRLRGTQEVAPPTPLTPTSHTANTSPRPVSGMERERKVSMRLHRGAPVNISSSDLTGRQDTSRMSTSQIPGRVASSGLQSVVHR
Protocol: as §1, §2, §3

[3] = tested on: PSN1; test: Cell viability (CellTiter-Glo, 72 h), PSN1; format: cell-based, Human; conditions: PSN1, 72 hours; for IC50: Homo sapiens; for Bottom: dose-response curve bottom; for Top: dose-response curve top
Protocol: Human pancreatic cancer cell lines (PSN1, PANC-1, Panc 04.03, MIA PaCa-2, BxPC-3, and Capan-1) were cultured in their respective culture media. PSN1 cell lines were maintained in RPMI 1640 + 10%FBS. MIA PaCa-2 cells were cultured in DMEM+10%FBS+5% horse serum. Panc 04.03 cells were grown in RPMI 1640 + 15%FBS+10μg/mL Insulin. PANC-1 cells were maintained in DMEM+10%FBS. BxPC-3 cells were cultured in RPMI 1640 + 10%FBS. Capan-1 cells were grown in IMDM+20%FBS. All cells were incubated at 37°C in a humidified atmosphere containing 5% CO2.
For assays, cells in the logarithmic growth phase were harvested, seeded to different concentrations at 2,000-6,000 cells/well in 96-well plates. Following overnight incubation, test compounds were added at various concentrations and incubated for 72 hours. Cell viability was assessed by the ATP concentration using the CellTiter-Glo reagent (Promega, Madison, WI 53711 USA), and luminescence values were recorded by a Multilabel Reader (PerkinElmer, Waltham, MA, USA).

[4] = parameters: method as in PMID 28726132; conditions: phase 1 clinical trial, given dosage, 5-day dosing time period; cited from earlier work
[5] = target: DYRK2 (Homo sapiens, UniProt Q92630); test: Kinase assay DYRK2; format: biochemical
DYRK2, sequence (Q92630 whole entry): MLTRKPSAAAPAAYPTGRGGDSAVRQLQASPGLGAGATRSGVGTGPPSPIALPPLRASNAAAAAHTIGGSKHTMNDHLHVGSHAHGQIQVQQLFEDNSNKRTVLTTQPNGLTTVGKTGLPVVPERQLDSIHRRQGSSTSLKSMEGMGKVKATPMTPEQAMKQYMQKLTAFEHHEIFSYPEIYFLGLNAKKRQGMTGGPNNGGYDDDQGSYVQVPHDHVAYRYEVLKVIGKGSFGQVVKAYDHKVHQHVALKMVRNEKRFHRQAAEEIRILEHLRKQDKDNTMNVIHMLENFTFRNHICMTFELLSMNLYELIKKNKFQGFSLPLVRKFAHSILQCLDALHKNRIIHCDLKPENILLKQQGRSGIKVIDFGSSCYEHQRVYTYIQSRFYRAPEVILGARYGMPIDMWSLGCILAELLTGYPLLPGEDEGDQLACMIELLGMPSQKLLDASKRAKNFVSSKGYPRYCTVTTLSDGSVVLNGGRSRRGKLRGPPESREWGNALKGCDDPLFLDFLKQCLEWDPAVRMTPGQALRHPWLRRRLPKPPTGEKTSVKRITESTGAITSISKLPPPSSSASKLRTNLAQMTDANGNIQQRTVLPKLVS
Protocol: as §1, §2, §3

[6] = Pharmacokinetics in PSN1 tumor CDX model, M-NSG mice; format: in vivo; conditions: female, mouse, serum; PSN1 tumor-bearing M-NSG mice, oral, 60 mg/kg; read-out: T1/2 in blood (converted)
Protocol: For in vivo PK/PD studies, a PSN1 tumor model was established in female M-NSG (NOD.Cg-Prkdc^scidIl2rg^em1Smoc ) mice, which are severely immunodeficient mice lacking the interleukin 2 receptor gamma chain on a NOD.Cg-Prkdc^scid background, at Shanghai Model Organisms (Shanghai, China). Briefly, 5 × 10^6 PSN1 cells were inoculated subcutaneously into each M-NSG mouse. Once the tumors reached approximately 500 mm³, compounds were administered orally at various dosages. For PK studies, blood samples were collected at 0, 0.25, 0.5, 1, 2, 6, and 24 hours post-dose. The sera from blood were then obtained and stored at -70°C. For PD studies, tumors were harvested 2 hours after dosing and stored at -70°C.The serum and tumor samples were then transported to PRECEDO (Hefei, Anhui, China) for further PK/PD studies.
For PK studies, serum and tumor samples were processed with the internal standard solution. Serum samples were centrifuged and mixed directly, while tumor samples were homogenized first. Supernatants were prepared for LC-MS/MS analysis. Compound concentrations were determined using LC-MS/MS with tolbutamide as the internal standard, employing a reverse-phase column and ESI on a tandem quadrupole mass spectrometer.

[7] = target: CLK1 (Homo sapiens, UniProt P49759); test: Kinase assay CLK1; format: biochemical
CLK1, sequence (P49759 whole entry): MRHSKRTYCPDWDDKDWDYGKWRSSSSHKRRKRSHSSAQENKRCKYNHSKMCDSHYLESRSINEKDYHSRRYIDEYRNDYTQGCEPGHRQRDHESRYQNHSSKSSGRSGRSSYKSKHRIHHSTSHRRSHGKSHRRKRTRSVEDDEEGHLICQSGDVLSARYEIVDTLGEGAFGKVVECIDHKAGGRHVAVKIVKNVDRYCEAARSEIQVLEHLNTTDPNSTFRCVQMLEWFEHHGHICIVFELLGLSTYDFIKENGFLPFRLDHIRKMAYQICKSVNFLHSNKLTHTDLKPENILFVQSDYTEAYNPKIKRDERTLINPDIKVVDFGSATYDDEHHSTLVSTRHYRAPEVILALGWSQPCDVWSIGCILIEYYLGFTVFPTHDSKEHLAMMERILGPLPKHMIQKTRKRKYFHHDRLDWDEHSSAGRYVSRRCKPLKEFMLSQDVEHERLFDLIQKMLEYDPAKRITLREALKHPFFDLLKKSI
Protocol: as §1, §2, §3

DRAK1, sequence (Q9UEE5 whole entry, species assumed): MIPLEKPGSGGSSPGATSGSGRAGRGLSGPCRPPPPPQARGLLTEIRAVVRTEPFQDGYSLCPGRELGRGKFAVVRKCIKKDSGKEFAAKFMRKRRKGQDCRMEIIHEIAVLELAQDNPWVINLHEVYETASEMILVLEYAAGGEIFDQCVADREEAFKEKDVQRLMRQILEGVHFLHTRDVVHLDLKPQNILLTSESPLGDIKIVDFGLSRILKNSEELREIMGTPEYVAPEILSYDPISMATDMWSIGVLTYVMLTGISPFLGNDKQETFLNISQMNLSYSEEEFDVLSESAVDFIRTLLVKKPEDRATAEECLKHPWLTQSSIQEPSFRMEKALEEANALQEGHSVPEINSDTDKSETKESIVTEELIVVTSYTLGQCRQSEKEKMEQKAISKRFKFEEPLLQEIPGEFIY

Row | SMILES | IC50 [1] | IC50 [2] | IC50 [3] | Bottom [3] | Top [3] | Tolerability [4] | IC50 [5] | half-life [6] | IC50 [7]
1 | CN1CCN(c2ccc(OC(F)(F)F)c(Nc3ncc4c(n3)-c3c(c(C(N)=O)nn3CCO)CC4)c2)CC1 [NMS-P937] | 44.6 nM | 59.3 nM | 48.9 nM | 2.3 | 85.9 | well tolerated | 1150 nM | 2.4 h | 235 nM
2 | [2H]C1([2H])N(C)C([2H])([2H])C([2H])([2H])N(c2ccc(OC(F)(F)F)c(Nc3ncc4c(n3)-c3c(c(C(N)=O)nn3CCO)CC4)c2)C1([2H])[2H] [PR00012] | 48.7 nM | 51.8 nM | 60.7 nM | 13.7 | 93.7 |  | 81.4 nM | 5.5 h | 196 nM
